From patent US20180319762A1, “5-deoxy-irilin B Having Angiotensin-I-converting enzyme Inhibition Activity derived from Salicornia SPP. and Composition Containing the Same” (PHYTO CORPORATION, priority 2015, published 2018)

Columns and labels:
[1] = target: T1, angiotensin-I-converting enzyme (ACE) (Oryctolagus cuniculus, UniProt P12822); assay: ACE (Angiotensin I-Converting Enzyme) inhibition activity, Hip-His-Leu substrate, absorbance at 228 nm; assay type: biochemical, rabbit
T1 construct: tissue Sigma; host or cells: rabbit lung (acetone powder, borate buffer extract supernatant)
T1 sequence (P12822 34-1310): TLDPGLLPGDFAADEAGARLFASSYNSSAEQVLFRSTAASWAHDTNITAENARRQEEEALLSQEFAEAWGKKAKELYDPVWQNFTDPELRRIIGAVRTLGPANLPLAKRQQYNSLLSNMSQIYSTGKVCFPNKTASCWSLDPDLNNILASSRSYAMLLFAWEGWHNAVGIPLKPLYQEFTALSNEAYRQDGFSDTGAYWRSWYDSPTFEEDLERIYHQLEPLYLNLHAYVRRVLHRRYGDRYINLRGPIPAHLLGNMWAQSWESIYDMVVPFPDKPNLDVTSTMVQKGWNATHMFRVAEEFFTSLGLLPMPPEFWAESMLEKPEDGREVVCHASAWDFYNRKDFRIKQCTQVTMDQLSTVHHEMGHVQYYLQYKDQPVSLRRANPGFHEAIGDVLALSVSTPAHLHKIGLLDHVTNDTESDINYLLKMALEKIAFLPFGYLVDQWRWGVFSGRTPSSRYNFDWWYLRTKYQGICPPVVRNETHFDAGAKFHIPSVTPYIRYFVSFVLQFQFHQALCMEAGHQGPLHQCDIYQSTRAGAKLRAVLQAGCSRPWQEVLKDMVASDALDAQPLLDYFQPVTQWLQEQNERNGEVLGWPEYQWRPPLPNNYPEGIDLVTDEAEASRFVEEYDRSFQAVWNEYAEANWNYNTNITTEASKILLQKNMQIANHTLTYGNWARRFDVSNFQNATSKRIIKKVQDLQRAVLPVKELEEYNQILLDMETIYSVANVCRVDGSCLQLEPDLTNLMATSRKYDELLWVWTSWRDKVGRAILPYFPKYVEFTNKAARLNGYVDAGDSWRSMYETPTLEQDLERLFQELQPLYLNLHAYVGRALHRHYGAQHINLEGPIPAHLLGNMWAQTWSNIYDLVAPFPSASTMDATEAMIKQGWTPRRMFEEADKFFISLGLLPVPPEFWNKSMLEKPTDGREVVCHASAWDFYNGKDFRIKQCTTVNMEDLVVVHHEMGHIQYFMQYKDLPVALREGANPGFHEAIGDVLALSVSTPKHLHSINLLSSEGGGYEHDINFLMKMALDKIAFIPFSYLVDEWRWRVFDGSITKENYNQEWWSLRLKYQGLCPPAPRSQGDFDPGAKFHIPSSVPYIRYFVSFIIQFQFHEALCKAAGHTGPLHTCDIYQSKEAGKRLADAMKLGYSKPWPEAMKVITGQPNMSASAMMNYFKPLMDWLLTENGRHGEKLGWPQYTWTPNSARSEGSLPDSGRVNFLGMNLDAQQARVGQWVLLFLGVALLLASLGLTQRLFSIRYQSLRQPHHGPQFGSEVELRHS
Description: As shown in the results of Table 8, the hydrolyzed Salicornia salty sauces had very high functional polyphenol and flavonoid contents compared to the non-hydrolyzed salty sauce. Thus, as an indicator for antihypertensive activity, angiotensin-I-converting enzyme (ACE) inhibition activity was evaluated. As the test sample, each salty sauce, adjusted to a salt content of 14%, was added at a concentration of 1 to 5 μL/mL to the reaction solution, and then measured.
Angiotensin-II, produced by ACE, promotes an increase in blood pressure and secretion of antidiuretic hormone aldosterone, and suppresses the emission of water and sodium to thus increase blood circulation, thus causing hypertension. […] Specifically, 1 g of a rabbit lung acetone powder (Sigma Col) in 50 μL of the sample was mixed with 25 μL (2.5 unit) of an ACE supernatant dissolved in a 0.1 M sodium borate buffer containing 10 mL of 0.3 M NaCl, 50 μL of a 0.1 M sodium borate buffer (pH 8.3) containing 0.3 M NaCl, and 25 μL of a sample solution at various concentrations (0.25, 0.5 and 1.0 mg/mL), and then preincubated at 37° C. for 10 min. Further, 50 μL of a Hip-His-Leu substrate solution was added, and the resulting mixture was allowed to react at 37° C. for 30 min, after which the reaction was stopped by the addition of 100 μL of 1 N HCl. 1 mL of ethyl acetate was added, and the resulting reaction mixture was agitated in a vortex for 1 min and centrifuged at 3,000 g for 15 min, after which 0.8 mL of the separated ethyl acetate supernatant (extract) was recovered. The supernatant was warmed in a hood and thus completely volatilized, and was then dissolved in 1 mL of a sodium borate buffer under the same conditions, after which absorbance at 228 nm was measured and ACE inhibition activity was calculated.
During purification, the organic solvent fractions (at concentrations of 10, 25, 50 μg/mL) were measured for ACE inhibition activity in the same manner as in Example 3-2.

[2] = Solubility (physical and chemical properties of Compound A); assay type: physicochemical

| IC50 [1] [µM] | inhibition at 10 µg/mL ([1]; at a concentration of 10 μg/mL) [%] | ACE inhibition activity, rank among compared samples/fractions ([1]; compared with the other sauces or with the other fractions of the same purification step) | Solubility ([2]; in methanol, ethanol, ethyl acetate, and chloroform) | Solubility ([2]; in water) | Compound |
| --- | --- | --- | --- | --- | --- |
| 15.8 | ≥ 95 | the greatest | Soluble | insoluble | COc1cc2c(=O)c(-c3ccccc3O)coc2cc1O [EDS-LH-7b, 7-hydroxy-3-(2′-hydroxyphenyl)-6-methoxy-4H-1-benzopyran-4-one] |
| 93.3 | – | – | – | – | O=c1cc(-c2ccc(O)c(O)c2)oc2cc(O)cc(O)c12 [Luteolin, reference compound] |
